According to patent US8759534B2, “Trimethine cyanine and its use” (Orgchem Technologies, Inc., priority 2011, dated 2014):

Assay: Solubility in TFP
Type: physicochemical
Conditions: solvent TFP (2,2,3,3-tetrafluoro-1-propanol)

Solubility (in TFP) [%] | SMILES
4.8 | CN1/C(=C/C=C/C2=[N+](C)c3ccc4ccccc4c3C2(C)Cc2ccc(Oc3ccc(CC4(C)C(/C=C/C=C5/N(C)c6ccc7ccccc7c6C5(C)Cc5ccccc5)=[N+](C)c5ccc6ccccc6c54)cc3)cc2)C(C)(Cc2ccccc2)c2c1ccc1ccccc21 (centres unmarked) [Compound No. 1]
3.6 | CCN1/C(=C/C=C/C2=[N+](C)c3ccc4ccccc4c3C2(C)Cc2ccc(Cc3ccc(CC4(C)C(/C=C/C=C5/N(CC)c6ccc7ccccc7c6C5(C)Cc5ccccc5)=[N+](C)c5ccc6ccccc6c54)cc3)cc2)C(C)(Cc2ccccc2)c2c1ccc1ccccc21 (centres unmarked) [Compound No. 13]
5.3 | CN1/C(=C/C=C/C2=[N+](C)c3ccc4ccccc4c3C2(C)CC=CCC2(C)C(/C=C/C=C3/N(C)c4ccc5ccccc5c4C3(C)Cc3ccccc3)=[N+](C)c3ccc4ccccc4c32)C(C)(Cc2ccccc2)c2c1ccc1ccccc21 (centres unmarked) [Compound No. 26]
5.3 | CN1/C(=C/C=C/C2=[N+](Cc3ccccc3)c3ccc4ccccc4c3C2(C)CC=CCC2(C)C(/C=C/C=C3/N(C)c4ccc5ccccc5c4C3(C)Cc3ccccc3)=[N+](Cc3ccccc3)c3ccc4ccccc4c32)C(C)(Cc2ccccc2)c2c1ccc1ccccc21 (centres unmarked) [Compound No. 29]
4.17 | CCCN1/C(=C/C=C/C2=[N+](CCC(C)C)c3ccc4ccccc4c3C2(C)CC=CCC2(C)C(/C=C/C=C3/N(CCC)c4ccccc4C3(C)C)=[N+](CCC(C)C)c3ccc4ccccc4c32)C(C)(C)c2ccccc21 (centres unmarked) [Compound No. 34]
